Laboratory results: paper PMC2228184 (British Journal of Cancer, 1997)
Like-named read-outs stand apart in the source and are kept apart here.

How the values were obtained:
[1] = tested on: patients with advanced solid tumours; conditions: human, in vivo
Description: (§1) Topoisomerases are essential nuclear enzymes that alter the topology of DNA during DNA metabolism by cleavage of DNA strands, strand passage and religation (Wang, 1985). Two major topoisomerases, types I and H, have been identified in all mammalian cells, and induce single- and double-strand breaks respectively. […] They have different sites of binding DNA and play a different role in the cell cycle. Received 15 November 1996 Revised 19 February 1997 Accepted 10April 1997 Correspondence to: VMM Herben, Slotervaart Hospital, Department of Pharmacy and Pharmacology, Louwesweg 6, 1066 EC Amsterdam, The Netherlands Topotecan (Hycamtin), a semisynthetic water-soluble derivative of camptothecin, was the first topoisomerase I-targeting drug to undergo clinical testing since the discontinuation of the clinical development of sodium camptothecin in the early 1970s. […] In view of topotecan's unique mechanism of action and important anti-tumour effects as single agent, recent studies have focused on combination therapies with other effective anti- cancer agents. The combination of topoisomerase I inhibitors with topoiso- merase II poisons is in theory an attractive strategy. As resistance to inhibition of one class of topoisomerase enzymes is accompa- nied with an elevated sensitivity to the other class of topoiso- merase inhibitors in vitro (Tan et al, 1989; Sugimoto et al, 1990), a combined administration regimen of inhibitors of both topoiso- merases could effectively kill tumour cells. […] The recommended dose for this schedule is 1.5 mg m-2 day-1 (Rowinsky et al, 1991; Verweij et al, 1993). […] Other eligibility criteria included a Zubrod-ECOG-WHO performance status < 2, anticipated life expectancy of 2 3 months and age 2 18 years. Previous anti-cancer chemotherapy had to be discontinued for at least 4 weeks before entry into the study or 6 weeks in cases of pretreatment with a nitrosourea or mitomycin C. All patients had acceptable bone marrow function white blood cell (WBC) ? […]

[2] = ref Clark et al, 1989; cited from earlier work
[3] = tested on: patients with advanced solid tumours; conditions: both, human, in vivo
Description: 0.3 h. […] 2.7 1 h-1 m-2 with a steady-state volume of distribution of 36.7 ? 6.2 I m-2. […] 1.0 h after infusion. […] 0.54 and 1.23 ? […] 1.2 and 2.3 ? 1.0 h after ingestion of 20 and 40 mg respectively. […] Other eligibility criteria included a Zubrod-ECOG-WHO performance status < 2, anticipated life expectancy of 2 3 months and age 2 18 years. Previous anti-cancer chemotherapy had to be discontinued for at least 4 weeks before entry into the study or 6 weeks in cases of pretreatment with a nitrosourea or mitomycin C. All patients had acceptable bone marrow function white blood cell (WBC) ? 4 x 10^9 1-1 and platelets 2 100 x 109 11; normal hepatic function, serum bilirubin < 1.5 mg dl-' (25 pmol 1-1) and other liver function tests < twice the normal upper limit or < five times when related to liver metastases, prothrombin or thrombotest within normal limits; normal renal function, serum creatinine < 1.4 mg dl-1 (120 gmol 1-1). The study protocol was approved by the Medical Ethics Committee of the hospital, and all patients gave written informed consent. Treatment plan and study design Topotecan (SmithKline Beecham Pharmaceuticals, King of Prussia, PA, USA) was supplied by the National Cancer Institute as a lyophilized light yellow powder in vials containing 5 mg of topotecan (as the free base), 60 mg of mannitol, 25 mg of tartaric acid and 2 M hydrochloric acid and/or 0.05 M sodium hydroxide for pH adjustment to 3.0. The content of each vial was reconsti- tuted with 2 ml of sterile water for injection, USP, yielding a 2.5 mg ml-1 solution of topotecan. The appropriate dosage of the drug was diluted in 50 or 100 ml of 0.9% sodium chloride and was administered intravenously over 30 min by a syringe pump.

[4] = Plasma pharmacokinetics of etoposide after oral administration (HPLC); conditions: human
Description: Topoisomerases are essential nuclear enzymes that alter the topology of DNA during DNA metabolism by cleavage of DNA strands, strand passage and religation (Wang, 1985). Two major topoisomerases, types I and H, have been identified in all mammalian cells, and induce single- and double-strand breaks respectively. […] They have different sites of binding DNA and play a different role in the cell cycle. Received 15 November 1996 Revised 19 February 1997 Accepted 10April 1997 Correspondence to: VMM Herben, Slotervaart Hospital, Department of Pharmacy and Pharmacology, Louwesweg 6, 1066 EC Amsterdam, The Netherlands Topotecan (Hycamtin), a semisynthetic water-soluble derivative of camptothecin, was the first topoisomerase I-targeting drug to undergo clinical testing since the discontinuation of the clinical development of sodium camptothecin in the early 1970s. […] In view of topotecan's unique mechanism of action and important anti-tumour effects as single agent, recent studies have focused on combination therapies with other effective anti- cancer agents. The combination of topoisomerase I inhibitors with topoiso- merase II poisons is in theory an attractive strategy. As resistance to inhibition of one class of topoisomerase enzymes is accompa- nied with an elevated sensitivity to the other class of topoiso- merase inhibitors in vitro (Tan et al, 1989; Sugimoto et al, 1990), a combined administration regimen of inhibitors of both topoiso- merases could effectively kill tumour cells. […] The recommended dose for this schedule is 1.5 mg m-2 day-1 (Rowinsky et al, 1991; Verweij et al, 1993). […] Other eligibility criteria included a Zubrod-ECOG-WHO performance status < 2, anticipated life expectancy of 2 3 months and age 2 18 years. Previous anti-cancer chemotherapy had to be discontinued for at least 4 weeks before entry into the study or 6 weeks in cases of pretreatment with a nitrosourea or mitomycin C. All patients had acceptable bone marrow function white blood cell (WBC) ? […] The study protocol was approved by the Medical Ethics Committee of the hospital, and all patients gave written informed consent. Treatment plan and study design Topotecan (SmithKline Beecham Pharmaceuticals, King of Prussia, PA, USA) was supplied by the National Cancer Institute as a lyophilized light yellow powder in vials containing 5 mg of topotecan (as the free base), 60 mg of mannitol, 25 mg of tartaric acid and 2 M hydrochloric acid and/or 0.05 M sodium hydroxide for pH adjustment to 3.0. The content of each vial was reconsti- tuted with 2 ml of sterile water for injection, USP, yielding a 2.5 mg ml-1 solution of topotecan. The appropriate dosage of the drug was diluted in 50 or 100 ml of 0.9% sodium chloride and was administered intravenously over 30 min by a syringe pump. […]

[5] = tested on: patients; conditions: cited from earlier work
[6] = clinical; conditions: human, in vivo
Description: Topoisomerases are essential nuclear enzymes that alter the topology of DNA during DNA metabolism by cleavage of DNA strands, strand passage and religation (Wang, 1985). Two major topoisomerases, types I and H, have been identified in all mammalian cells, and induce single- and double-strand breaks respectively. […] They have different sites of binding DNA and play a different role in the cell cycle. Received 15 November 1996 Revised 19 February 1997 Accepted 10April 1997 Correspondence to: VMM Herben, Slotervaart Hospital, Department of Pharmacy and Pharmacology, Louwesweg 6, 1066 EC Amsterdam, The Netherlands Topotecan (Hycamtin), a semisynthetic water-soluble derivative of camptothecin, was the first topoisomerase I-targeting drug to undergo clinical testing since the discontinuation of the clinical development of sodium camptothecin in the early 1970s. […] In view of topotecan's unique mechanism of action and important anti-tumour effects as single agent, recent studies have focused on combination therapies with other effective anti- cancer agents. The combination of topoisomerase I inhibitors with topoiso- merase II poisons is in theory an attractive strategy. As resistance to inhibition of one class of topoisomerase enzymes is accompa- nied with an elevated sensitivity to the other class of topoiso- merase inhibitors in vitro (Tan et al, 1989; Sugimoto et al, 1990), a combined administration regimen of inhibitors of both topoiso- merases could effectively kill tumour cells. […] The recommended dose for this schedule is 1.5 mg m-2 day-1 (Rowinsky et al, 1991; Verweij et al, 1993). […] Other eligibility criteria included a Zubrod-ECOG-WHO performance status < 2, anticipated life expectancy of 2 3 months and age 2 18 years. Previous anti-cancer chemotherapy had to be discontinued for at least 4 weeks before entry into the study or 6 weeks in cases of pretreatment with a nitrosourea or mitomycin C. All patients had acceptable bone marrow function white blood cell (WBC) ? […] The study protocol was approved by the Medical Ethics Committee of the hospital, and all patients gave written informed consent. Treatment plan and study design Topotecan (SmithKline Beecham Pharmaceuticals, King of Prussia, PA, USA) was supplied by the National Cancer Institute as a lyophilized light yellow powder in vials containing 5 mg of topotecan (as the free base), 60 mg of mannitol, 25 mg of tartaric acid and 2 M hydrochloric acid and/or 0.05 M sodium hydroxide for pH adjustment to 3.0. The content of each vial was reconsti- tuted with 2 ml of sterile water for injection, USP, yielding a 2.5 mg ml-1 solution of topotecan. The appropriate dosage of the drug was diluted in 50 or 100 ml of 0.9% sodium chloride and was administered intravenously over 30 min by a syringe pump. […] The regimen was intended to be repeated every 4 weeks. This could be changed during the study to either shorter or longer intervals depending on bone marrow recovery. Doses were escalated in an alternating way according to the scheme in Table 1. […] Treatment cycles were to be repeated at 3-week intervals. Patients were scheduled to receive at least two courses.

[7] = Pharmacokinetics of N-desmethyltopotecan after 30-min infusion of topotecan; format: in vivo, human
Description: as §1

[8] = parameters: method as in Johnson and Wood, personal communication; conditions: ref Johnson and Wood, personal communication; cited from earlier work

Question: With `COc1cc([C@@H]2c3cc4c(cc3[C@@H](O[C@@H]3O[C@@H]5CO[C@@H](C)O[C@H]5[C@H](O)[C@H]3O)[C@H]3COC(=O)[C@H]23)OCO4)cc(OC)c1O` [etoposide] as the molecule, how does the “correlation of pharmacokinetics (AUC, Cmax) or total dose with haematological toxicity” value [1] read?
Answer: did not yield any significant relationship

Question: And the “peak plasma concentrations associated with significant toxicity” value [2]?
Answer: above 17 μmol l-1

Question: And the “recommended dose for phase II clinical trials” value [3]?
Answer: 40 mg bid

Question: What about the Cmax ([4]; 20 mg) of the same molecule?
Answer: 750 ± 540 nM

Question: And the Tmax ([4]; 20 mg)?
Answer: 2.4 ± 1.2 h

Question: What about the Cmax ([4]; 40 mg) of the same molecule?
Answer: 1230 ± 570 nM

Question: What about the Tmax ([4]; 40 mg) of the same molecule?
Answer: 2.3 ± 1 h

Question: Which results are given for `CC[C@@]1(O)C(=O)OCc2c1cc1n(c2=O)Cc2cc3c(CN(C)C)c(O)ccc3nc2-1` [topotecan]?
Answer: recommended dose, single agent ([5]; 30-min daily times five infusion every 3 weeks, ref Rowinsky et al, 1991, Verweij et al, 1993): 1.5 mg m-2 day-1; AUC50 (AUC associated with 50% decrease in ANC) ([5]; preceding single-agent phase I trial, Figure 2, ref Van Warmerdam et al, 1995): 79.2 h/nmol/L; recommended dose, single agent ([5]; previously treated patients, ref Saltz et al (1993)): 1.25 mg m-2 daily; recommended dose, single agent ([5]; previously untreated patients, ref Saltz et al (1993)): 1.5 mg m-2 daily; courses resulting in grades III or IV leucocytopenia and neutropenia ([5]; single agent 1.5 mg m-2 day-1, ref Rowinsky et al, 1991, Verweij et al, 1993): approximately 75%; dose associated with a 50% decrease in ANC (D50) ([1]; both): 0.6 mg m-2 day-1; half-life ([6]; both, iv): 2.1 ± 0.3 h; alpha half-life [6]: 3.8 ? 3.2 min; CL ([6]; 0.5 mg): 14.9 ? 1.8 l h-1 m-2; Vss ([6]; 0.5 mg): 34.0 ? 2.6 l m-2; t1/2 ([6]; 0.5 mg): 1.9 ? 0.1 h; CL ([6]; 1 mg): 13.4?2.6 l h-1 m-2; Vss ([6]; 1 mg): 36.4?5.2 l m-2; t1/2 ([6]; 1 mg): 2.2?0.3 h; CL ([6]; 1.25 mg): 15.6 ? 4.0 l h-1 m-2; Vss ([6]; 1.25 mg): 33.7 ? 6.7 l m-2; percentage of the administered dose recovered in the urine ([6]; 24 h): 41 ? 10%; percentage of the administered dose recovered in the urine, range ([6]; 24 h): 25-7 1; terminal (beta) half-life ([6]; iv): 2.1 ? 0.3 h; dose that could be given in combination, % of the single-agent dosage [3]: 67-83%; recommended dose for phase II clinical trials [3]: 1.0 mg m-2

Question: What does the source list for `CC[C@@]1(O)C(=O)OCc2c1cc1n(c2=O)Cc2cc3c(CNC)c(O)ccc3nc2-1` [N-desmethyltopotecan]?
Answer: additional excretion in the urine as the metabolite ([7]; 24 to 48 hours after the fifth daily infusion, four patients): 0.4%; metabolite-to-topotecan ratio of maximal plasma levels ([7]; all dose levels): 0.5%; metabolite-to-topotecan AUC(t) ratio ([7]; all dose levels, up to 6 h post-infusion): 0.012; relation of AUC(t) to myelosuppression [1]: not related; anti-tumour activity compared with the parent compound [8]: slightly less anti-tumour activity
